Columns and labels:
Serratia = assay: Compound was tested in vitro for antibacterial activity against Serratia.; assay type: functional
Escherichia coli = assay: Compound was tested in vitro for antibacterial activity against Escherichia coli.; assay type: functional
[1] = Compound was tested in vitro for inhibition of gram positive organisms.; assay type: functional; conditions: Bacteria
Morganella = assay: Compound was tested in vitro for antibacterial activity against Morganella.; assay type: functional
Providencia = assay: Compound was tested in vitro for antibacterial activity against Providencia.; assay type: functional
Micrococcus luteus = assay: Compound was tested in vitro for antibacterial activity against Sarcina lutea.; assay type: functional, sarcinea lutea
Enterobacter = assay: Compound was tested in vitro for antibacterial activity against Enterobacter.; assay type: functional
[2] = Compound was tested in vitro for inhibition of gram negative organisms.; assay type: functional; conditions: Bacteria
Enterococcus faecalis = assay: Compound was tested in vitro for antibacterial activity against Enterococcus faecalis.; assay type: functional
Klebsiella = assay: Compound was tested in vitro for antibacterial activity against Klebsiella.; assay type: functional
Staphylococcus = assay: Compound was tested in vitro for antibacterial activity against Staphylococcus.; assay type: functional
Bacillus subtilis = assay: Compound was tested in vitro for antibacterial activity against Bacillus subtilis.; assay type: functional
Salmonella = assay: Compound was tested in vitro for antibacterial activity against Salmonella.; assay type: functional

MIC (Serratia) [µg/mL]	MIC (Escherichia coli) [µg/mL]	MIC [1] [µg/mL]	MIC (Morganella) [µg/mL]	MIC (Providencia) [µg/mL]	MIC (Micrococcus luteus) [µg/mL]	MIC (Enterobacter) [µg/mL]	MIC [2] [µg/mL]	MIC (Enterococcus faecalis) [µg/mL]	MIC (Klebsiella) [µg/mL]	MIC (Staphylococcus) [µg/mL]	MIC (Bacillus subtilis) [µg/mL]	MIC (Salmonella) [µg/mL]	SMILES
≥ 128	≥ 25.9	2.26	≥ 90.5	≥ 80.6	1	≥ 128	53	32	≥ 32	1.51	1	≥ 36.8	CCCCOC1=C(C(=O)[O-])N2C(=O)[C@H]([C@@H](C)O)[C@H]2S1.[Na+]
–	–	0.1	–	–	–	–	0.7	–	–	–	–	–	CCSC1=C(C(=O)[O-])N2C(=O)[C@H]([C@@H](C)O)[C@H]2S1.[Na+]
≥ 128	≥ 128	27.3	≥ 128	≥ 128	32	≥ 128	≥ 128	45.3	≥ 128	27.4	8	≥ 128	C[C@@H](O)[C@H]1C(=O)N2C(C(=O)[O-])=C(OCCN)S[C@H]12.[Na+]
29.6	10.4	3.2	45.3	39.4	2	24.2	16.6	32	8.98	1.51	1.41	6.96	COC1=C(C(=O)[O-])N2C(=O)[C@H]([C@@H](C)O)[C@H]2S1.[Na+]
16	6.62	2.07	16	27.9	0.5	10.1	8.3	64	4.92	1.57	1	4	C[C@@H](O)[C@H]1C(=O)N2C(C(=O)[O-])=C(OCCOC(N)=O)S[C@H]12.[Na+]
≥ 22.6	6.82	2.8	45.3	39.4	1	≥ 24.2	12.1	64	5.04	3.12	1	4.6	CCOC1=C(C(=O)[O-])N2C(=O)[C@H]([C@@H](C)O)[C@H]2S1.[Na+]
–	–	0.2	–	–	–	–	0.5	–	–	–	–	–	C[C@@H](O)[C@H]1C(=O)N2C(C(=O)[O-])=C(SCCOC(N)=O)S[C@H]12.[Na+]
≥ 87.1	14.4	2.44	64	≥ 64	1	≥ 73.5	31.6	32	20.2	1.66	1	10.6	CCCOC1=C(C(=O)[O-])N2C(=O)[C@H]([C@@H](C)O)[C@H]2S1.[Na+]
–	–	0.2	–	–	–	–	3.6	–	–	–	–	–	C[C@@H](O)[C@H]1C(=O)N2C(C(=O)[O-])=C(SCCN)S[C@H]12.[Na+]
